From ChEMBL document CHEMBL1201862, “PubChem BioAssay data set” (2004) come the findings set out here.

Molecules are shown by their SMILES. Calls of active or inactive are those of the source. Bounds are passed on as bounds.

The target in test [1] is T1, Type-1 angiotensin II receptor (Homo sapiens, UniProt P30556).
T1 sequence (P30556 whole entry): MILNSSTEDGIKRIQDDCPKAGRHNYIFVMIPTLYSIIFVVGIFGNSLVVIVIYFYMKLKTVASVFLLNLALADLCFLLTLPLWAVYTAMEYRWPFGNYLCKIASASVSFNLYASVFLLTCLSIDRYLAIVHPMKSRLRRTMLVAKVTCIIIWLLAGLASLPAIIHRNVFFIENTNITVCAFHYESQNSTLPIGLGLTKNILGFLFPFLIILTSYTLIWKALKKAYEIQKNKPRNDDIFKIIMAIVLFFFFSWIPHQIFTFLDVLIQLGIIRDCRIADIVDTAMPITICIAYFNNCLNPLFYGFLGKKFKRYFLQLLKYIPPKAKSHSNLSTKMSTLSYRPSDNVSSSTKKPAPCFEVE
Nature of the test: AT1 receptor antagonists, dose response, selectivity assay for APJ receptor antagonist project, cell-based, uHTS hits (AID 463214).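 Further: antagonist potency against angiotensin II stimulated AT1 response.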 Format: functional.

The nature of test [2]: HepG2 cell cytotoxicity, dose response, cytotoxicity control for Shn3 inhibitor project, CellTiter-Glo, cherry-picked (AID 624134). Format: functional, cell-based.
The subject of test [3] is Vero. Put plainly: Vero cell cytotoxicity, cytotoxicity control for flavivirus capping enzyme inhibitors (AID 588742). Format: functional. As to conditions: Chlorocebus sabaeus.
For test [4], the target named is Glucose-6-phosphate 1-dehydrogenase (Homo sapiens, UniProt P11413). Put plainly: human G6PD enzyme inhibitors, dose response, selectivity assay for P. falciparum G6PD inhibitor project, biochemical, fluorescence (AID 504792). Format: functional.
The target in test [5] is T2, Endoribonuclease toxin MazF (Escherichia coli K-12, UniProt P0AE70).
T2 sequence (P0AE70 whole entry): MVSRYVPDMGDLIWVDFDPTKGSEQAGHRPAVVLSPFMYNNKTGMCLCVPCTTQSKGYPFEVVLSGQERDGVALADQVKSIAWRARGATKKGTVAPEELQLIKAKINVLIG
Put plainly: fluorescent RNA oligo signal without MazF, dose response, counter-screen for MazEF activator project, biochemical, fluorescence, single-stranded RNase substrate (AID 588502). Format: functional. Background: Counterscreens check selectivity or assay interference.

The target of test [6] is Beta-galactosidase (Escherichia coli, UniProt Q8VNN2). Nature of the test: PubChem AID 485352. Format: functional.
Test [7] has as its target T3, Fatty acid synthase (Homo sapiens, UniProt P49327). Put plainly: FAS thioesterase domain inhibitors, dose response, biochemical, endpoint fluorescence intensity, uHTS hits (AID 624327).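 Further: fluorescence from hydrolysis of an O-methyl fluorescein acyl ester substrate by the enzyme.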 Format: functional.
The subject of test [8] is Streptococcus sp. 'group A'. Nature of the test: growth inhibition of control SK(-) GAS strain, dose response, counter-screen for streptokinase expression inhibitor project, luminescence, kanamycin, BacTiterGlo, confirmation (AID 1900). Format: functional, organism-based.
Test [9] deals with T3, Fatty acid synthase. Nature of the test: FAS thioesterase domain inhibitors, dose response, biochemical, kinetic fluorescence intensity (AID 624326).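 Further: rate of fluorescence rise from hydrolysis of a fluorogenic O-methyl fluorescein ester substrate.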 Format: functional.
In test [10] the target is T4, Mannose-6-phosphate isomerase (Homo sapiens, UniProt P34949).
T4 sequence (P34949 whole entry): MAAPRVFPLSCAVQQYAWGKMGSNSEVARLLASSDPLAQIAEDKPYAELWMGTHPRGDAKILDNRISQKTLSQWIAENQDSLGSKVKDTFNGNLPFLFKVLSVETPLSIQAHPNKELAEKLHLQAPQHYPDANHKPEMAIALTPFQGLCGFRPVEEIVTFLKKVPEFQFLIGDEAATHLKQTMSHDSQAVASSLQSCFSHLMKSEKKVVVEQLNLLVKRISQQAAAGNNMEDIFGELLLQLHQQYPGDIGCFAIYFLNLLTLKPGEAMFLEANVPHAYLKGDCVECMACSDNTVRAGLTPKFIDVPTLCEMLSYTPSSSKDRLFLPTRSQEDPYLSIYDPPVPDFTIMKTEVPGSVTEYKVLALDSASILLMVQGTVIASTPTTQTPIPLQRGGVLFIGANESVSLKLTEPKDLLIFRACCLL
Put plainly: inhibitors of human PMI, primary screen, biochemical, fluorescence intensity, coupled assay (AID 1209).

Test [11] can be described thus: Shn3 3'UTR reporter inhibitors, dose response, cell-based, Clone20 osteoblasts, firefly luciferase, cherry-picked (AID 624132).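 Further: firefly luciferase luminescence from reporter carrying the Shn3 3'UTR in osteoblasts.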 Format: functional.
The target of test [12] is Genome polyprotein (dengue virus type 2, UniProt P29990). Nature of the test: Dengue-2 NS5 methyltransferase inhibitors, primary screen, biochemical, confirmation dose response (AID 588689). Format: functional.
In test [13] the test system is Streptococcus. Put plainly: Group A Streptococcus viability loss, dose response, counter-screen for streptokinase expression inhibitor project, luminescence, BacTiterGlo (AID 1915).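 Further: potency for reduction of bacterial viability or growth.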 Format: functional, organism-based.
In test [14] the target is T2, Endoribonuclease toxin MazF. Nature of the test: MazF toxin RNase activators, dose response, biochemical, fluorescence, single-stranded RNA substrate, uHTS hits (AID 588481). Format: functional.
For test [15], the target named is T5, Streptokinase A (Streptococcus pyogenes serotype M1, UniProt P10520).
T5 sequence (P10520 whole entry): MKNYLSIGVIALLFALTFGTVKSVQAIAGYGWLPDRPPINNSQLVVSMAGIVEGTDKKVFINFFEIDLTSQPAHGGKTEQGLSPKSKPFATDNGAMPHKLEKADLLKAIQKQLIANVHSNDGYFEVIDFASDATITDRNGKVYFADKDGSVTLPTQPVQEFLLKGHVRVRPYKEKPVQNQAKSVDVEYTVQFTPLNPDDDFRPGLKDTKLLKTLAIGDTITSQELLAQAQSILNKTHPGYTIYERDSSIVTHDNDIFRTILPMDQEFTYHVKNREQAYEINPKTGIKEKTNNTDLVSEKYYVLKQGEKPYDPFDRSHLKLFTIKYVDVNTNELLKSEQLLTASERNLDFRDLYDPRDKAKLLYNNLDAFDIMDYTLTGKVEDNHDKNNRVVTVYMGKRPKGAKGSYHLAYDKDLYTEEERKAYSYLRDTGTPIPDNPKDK
Put plainly: S. pyogenes streptokinase expression inhibitors, potency, dose response, plasminogen activation absorbance, OD405 (AID 1914).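 Further: secreted streptokinase activity via plasminogen activation per viability signal from cell pellet.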 Format: functional, Streptococcus pyogenes M1 GAS.

Test [16] can be described thus: control 3'UTR Renilla luciferase suppression, dose response, counter-screen for Shn3 inhibitor project, cell-based, Clone20-Shn3RL, cherry-picked (AID 624133). Format: functional.
Test [17] concerns the target T6, Zinc finger protein mex-5 (Caenorhabditis elegans, UniProt Q9XUB2).
T6 sequence (Q9XUB2 whole entry): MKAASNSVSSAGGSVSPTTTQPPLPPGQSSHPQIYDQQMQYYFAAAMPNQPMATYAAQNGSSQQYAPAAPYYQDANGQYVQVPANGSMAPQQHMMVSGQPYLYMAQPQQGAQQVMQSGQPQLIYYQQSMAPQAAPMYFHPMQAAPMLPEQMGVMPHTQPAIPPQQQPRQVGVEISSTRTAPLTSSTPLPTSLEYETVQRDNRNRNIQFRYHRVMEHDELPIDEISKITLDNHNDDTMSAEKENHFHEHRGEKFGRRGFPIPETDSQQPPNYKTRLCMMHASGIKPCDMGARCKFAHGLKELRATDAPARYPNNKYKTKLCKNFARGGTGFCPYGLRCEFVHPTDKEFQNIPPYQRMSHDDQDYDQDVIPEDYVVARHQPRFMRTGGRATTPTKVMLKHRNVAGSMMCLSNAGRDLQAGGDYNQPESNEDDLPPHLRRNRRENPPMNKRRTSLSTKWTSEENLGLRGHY
Nature of the test: MEX-5/TCR-2 RNA interaction inhibitors, dose response, biochemical, C. elegans, fluorescence polarization (AID 1960). (In general: Fluorescence polarisation rises when a labelled molecule tumbles more slowly, as on binding a larger partner.)

Test [18] concerns the target T7, RNA-binding protein pos-1 (Caenorhabditis elegans, UniProt G5EF15).
T7 sequence (G5EF15 whole entry): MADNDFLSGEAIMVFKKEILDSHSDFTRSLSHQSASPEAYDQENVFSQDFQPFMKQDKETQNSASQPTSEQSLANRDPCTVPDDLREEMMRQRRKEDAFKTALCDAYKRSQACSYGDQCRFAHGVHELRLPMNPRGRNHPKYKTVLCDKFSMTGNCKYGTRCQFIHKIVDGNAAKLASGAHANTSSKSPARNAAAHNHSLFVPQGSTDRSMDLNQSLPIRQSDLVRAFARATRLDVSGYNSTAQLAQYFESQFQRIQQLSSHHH
Put plainly: inhibitors of POS-1/mex-3 RNA binding, dose response, biochemical, fluorescence polarization (AID 1964).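 Further: purified POS-1 fused to maltose binding protein made in E. coli; potency of compounds blocking POS-1 binding to fluorescent RNA.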

Test [19] has as its target T8, Corticotropin-releasing factor receptor 2/Corticotropin-releasing factor-binding protein (Homo sapiens, UniProt P24387+Q13324).
T8 sequence (Q13324 whole entry): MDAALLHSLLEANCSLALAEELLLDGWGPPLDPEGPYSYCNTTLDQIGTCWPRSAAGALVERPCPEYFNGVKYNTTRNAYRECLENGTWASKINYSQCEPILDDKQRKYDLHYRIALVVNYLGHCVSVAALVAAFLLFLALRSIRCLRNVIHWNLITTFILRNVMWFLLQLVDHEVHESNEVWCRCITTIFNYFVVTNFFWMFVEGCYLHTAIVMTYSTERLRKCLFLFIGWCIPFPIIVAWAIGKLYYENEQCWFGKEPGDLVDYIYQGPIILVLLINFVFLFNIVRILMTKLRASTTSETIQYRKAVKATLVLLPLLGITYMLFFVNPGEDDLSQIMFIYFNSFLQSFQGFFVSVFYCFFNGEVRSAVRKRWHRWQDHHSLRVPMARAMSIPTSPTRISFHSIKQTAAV
T8 sequence (P24387 whole entry): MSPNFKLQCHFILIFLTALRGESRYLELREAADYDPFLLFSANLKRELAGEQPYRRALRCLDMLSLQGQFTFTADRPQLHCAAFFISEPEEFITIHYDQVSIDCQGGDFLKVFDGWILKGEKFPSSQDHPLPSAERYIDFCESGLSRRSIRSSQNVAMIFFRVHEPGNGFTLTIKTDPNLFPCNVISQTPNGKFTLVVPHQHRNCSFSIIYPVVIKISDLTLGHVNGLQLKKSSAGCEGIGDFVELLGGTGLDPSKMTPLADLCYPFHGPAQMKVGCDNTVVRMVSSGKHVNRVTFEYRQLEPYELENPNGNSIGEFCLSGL
Put plainly: activators of CRF receptor 2 with binding protein – uHTS hits, confirmation (AID 602473). The note with it: read-out: EC50_Mean. Format: functional.

T3 sequence (P49327 whole entry, the tested form may be a part): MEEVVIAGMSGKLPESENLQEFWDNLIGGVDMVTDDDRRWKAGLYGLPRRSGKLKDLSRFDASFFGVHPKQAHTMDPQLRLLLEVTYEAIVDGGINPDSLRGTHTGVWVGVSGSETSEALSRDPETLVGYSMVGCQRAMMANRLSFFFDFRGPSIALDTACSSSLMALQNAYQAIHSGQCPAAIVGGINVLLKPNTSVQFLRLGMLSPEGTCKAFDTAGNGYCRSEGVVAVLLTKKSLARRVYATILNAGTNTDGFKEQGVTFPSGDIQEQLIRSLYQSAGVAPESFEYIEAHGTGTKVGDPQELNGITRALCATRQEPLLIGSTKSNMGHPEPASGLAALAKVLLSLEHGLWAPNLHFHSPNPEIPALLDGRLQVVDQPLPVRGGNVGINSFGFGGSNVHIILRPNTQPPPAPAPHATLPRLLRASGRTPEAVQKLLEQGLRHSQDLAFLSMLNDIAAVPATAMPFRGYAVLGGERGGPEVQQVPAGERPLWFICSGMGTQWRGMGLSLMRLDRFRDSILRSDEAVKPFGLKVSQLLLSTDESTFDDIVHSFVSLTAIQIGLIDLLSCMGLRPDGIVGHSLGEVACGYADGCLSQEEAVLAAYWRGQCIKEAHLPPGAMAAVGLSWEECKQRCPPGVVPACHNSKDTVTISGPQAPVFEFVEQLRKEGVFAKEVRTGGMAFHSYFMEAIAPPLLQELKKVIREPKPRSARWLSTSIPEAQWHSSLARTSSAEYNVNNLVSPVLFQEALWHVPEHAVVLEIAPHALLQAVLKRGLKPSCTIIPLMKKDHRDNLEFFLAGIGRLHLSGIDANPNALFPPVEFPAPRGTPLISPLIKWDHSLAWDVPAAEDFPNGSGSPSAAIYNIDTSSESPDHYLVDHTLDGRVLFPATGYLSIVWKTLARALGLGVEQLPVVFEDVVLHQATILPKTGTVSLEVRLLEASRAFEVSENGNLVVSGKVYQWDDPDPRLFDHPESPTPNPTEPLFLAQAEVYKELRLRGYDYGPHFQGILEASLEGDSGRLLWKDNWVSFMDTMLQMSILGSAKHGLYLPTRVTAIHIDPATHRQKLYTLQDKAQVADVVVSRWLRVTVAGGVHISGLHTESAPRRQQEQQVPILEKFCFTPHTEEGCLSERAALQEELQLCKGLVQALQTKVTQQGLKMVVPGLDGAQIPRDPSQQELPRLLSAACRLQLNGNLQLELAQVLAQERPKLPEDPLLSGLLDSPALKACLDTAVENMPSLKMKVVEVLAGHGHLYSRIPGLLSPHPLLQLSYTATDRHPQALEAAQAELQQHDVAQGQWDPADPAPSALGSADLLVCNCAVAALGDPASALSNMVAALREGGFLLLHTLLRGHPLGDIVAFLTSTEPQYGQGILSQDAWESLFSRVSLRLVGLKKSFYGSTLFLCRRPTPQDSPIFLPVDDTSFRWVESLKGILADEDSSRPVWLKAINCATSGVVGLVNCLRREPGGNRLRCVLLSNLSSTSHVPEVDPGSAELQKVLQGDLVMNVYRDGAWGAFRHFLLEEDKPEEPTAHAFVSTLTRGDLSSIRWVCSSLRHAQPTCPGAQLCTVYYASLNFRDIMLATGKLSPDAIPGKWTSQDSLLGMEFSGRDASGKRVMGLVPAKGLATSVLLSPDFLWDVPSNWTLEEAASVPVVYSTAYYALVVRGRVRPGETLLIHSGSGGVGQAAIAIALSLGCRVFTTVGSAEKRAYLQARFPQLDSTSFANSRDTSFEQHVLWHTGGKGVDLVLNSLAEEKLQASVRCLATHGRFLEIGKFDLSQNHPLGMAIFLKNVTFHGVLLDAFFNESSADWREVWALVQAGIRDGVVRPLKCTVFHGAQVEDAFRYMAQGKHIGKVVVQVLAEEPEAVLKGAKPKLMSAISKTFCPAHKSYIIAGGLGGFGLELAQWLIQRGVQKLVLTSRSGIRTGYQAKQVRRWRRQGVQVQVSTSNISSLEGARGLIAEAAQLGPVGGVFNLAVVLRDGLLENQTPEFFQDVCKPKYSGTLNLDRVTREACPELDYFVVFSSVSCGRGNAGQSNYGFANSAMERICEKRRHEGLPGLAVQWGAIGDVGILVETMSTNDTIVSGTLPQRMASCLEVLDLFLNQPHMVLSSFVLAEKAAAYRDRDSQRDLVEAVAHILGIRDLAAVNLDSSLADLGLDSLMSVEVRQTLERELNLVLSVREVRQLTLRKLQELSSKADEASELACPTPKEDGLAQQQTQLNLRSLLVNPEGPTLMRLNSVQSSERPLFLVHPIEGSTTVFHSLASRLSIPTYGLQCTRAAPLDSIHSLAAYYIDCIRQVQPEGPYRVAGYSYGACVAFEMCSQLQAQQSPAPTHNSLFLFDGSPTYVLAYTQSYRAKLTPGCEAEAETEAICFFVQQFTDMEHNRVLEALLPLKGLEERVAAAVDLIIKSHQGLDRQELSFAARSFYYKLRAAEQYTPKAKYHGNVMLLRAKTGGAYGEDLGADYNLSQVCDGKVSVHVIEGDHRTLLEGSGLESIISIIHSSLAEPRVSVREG
Sequence of Glucose-6-phosphate 1-dehydrogenase (P11413 whole entry): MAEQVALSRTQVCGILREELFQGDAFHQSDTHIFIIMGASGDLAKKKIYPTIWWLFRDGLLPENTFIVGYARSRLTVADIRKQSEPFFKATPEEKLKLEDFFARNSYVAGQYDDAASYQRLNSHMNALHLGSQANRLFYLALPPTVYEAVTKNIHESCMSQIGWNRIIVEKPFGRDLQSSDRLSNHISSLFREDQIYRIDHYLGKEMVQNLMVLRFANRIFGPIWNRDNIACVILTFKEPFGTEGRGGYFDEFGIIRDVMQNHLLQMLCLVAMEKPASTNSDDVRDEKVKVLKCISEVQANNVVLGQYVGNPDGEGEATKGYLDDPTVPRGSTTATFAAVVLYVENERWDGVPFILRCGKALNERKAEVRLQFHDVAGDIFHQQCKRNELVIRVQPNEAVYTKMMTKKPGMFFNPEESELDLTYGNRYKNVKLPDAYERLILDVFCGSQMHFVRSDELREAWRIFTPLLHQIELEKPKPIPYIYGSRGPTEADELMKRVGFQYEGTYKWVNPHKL
Sequence of Beta-galactosidase (Q8VNN2 whole entry, the tested form may be a part): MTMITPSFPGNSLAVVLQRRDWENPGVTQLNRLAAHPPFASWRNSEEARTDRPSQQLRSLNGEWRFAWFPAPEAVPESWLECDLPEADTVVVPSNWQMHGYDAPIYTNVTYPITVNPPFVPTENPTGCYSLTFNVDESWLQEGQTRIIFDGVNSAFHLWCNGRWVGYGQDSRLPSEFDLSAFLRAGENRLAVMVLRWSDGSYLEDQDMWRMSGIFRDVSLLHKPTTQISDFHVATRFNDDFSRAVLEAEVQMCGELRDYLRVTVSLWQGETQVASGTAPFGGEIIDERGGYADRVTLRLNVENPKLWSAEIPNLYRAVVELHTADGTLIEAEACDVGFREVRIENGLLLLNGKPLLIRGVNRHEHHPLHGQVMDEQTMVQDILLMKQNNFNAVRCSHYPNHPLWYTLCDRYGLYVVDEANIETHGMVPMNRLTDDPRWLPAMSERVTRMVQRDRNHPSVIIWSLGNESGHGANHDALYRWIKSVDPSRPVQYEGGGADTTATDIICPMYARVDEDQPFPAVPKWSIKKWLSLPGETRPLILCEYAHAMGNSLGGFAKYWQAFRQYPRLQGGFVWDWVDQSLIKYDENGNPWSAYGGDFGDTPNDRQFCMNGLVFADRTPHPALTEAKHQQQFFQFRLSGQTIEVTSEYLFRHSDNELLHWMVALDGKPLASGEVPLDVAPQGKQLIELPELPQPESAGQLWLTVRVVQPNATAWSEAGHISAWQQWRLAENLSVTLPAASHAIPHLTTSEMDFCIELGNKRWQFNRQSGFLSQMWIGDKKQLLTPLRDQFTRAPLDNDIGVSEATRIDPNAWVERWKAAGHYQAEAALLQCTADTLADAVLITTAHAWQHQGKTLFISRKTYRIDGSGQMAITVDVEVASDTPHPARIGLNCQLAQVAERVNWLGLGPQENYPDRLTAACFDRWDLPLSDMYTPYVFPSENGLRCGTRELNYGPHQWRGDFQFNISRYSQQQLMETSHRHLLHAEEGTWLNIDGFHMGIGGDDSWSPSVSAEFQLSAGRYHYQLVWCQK
Sequence of Genome polyprotein (P29990 2492-3391 limits assumed): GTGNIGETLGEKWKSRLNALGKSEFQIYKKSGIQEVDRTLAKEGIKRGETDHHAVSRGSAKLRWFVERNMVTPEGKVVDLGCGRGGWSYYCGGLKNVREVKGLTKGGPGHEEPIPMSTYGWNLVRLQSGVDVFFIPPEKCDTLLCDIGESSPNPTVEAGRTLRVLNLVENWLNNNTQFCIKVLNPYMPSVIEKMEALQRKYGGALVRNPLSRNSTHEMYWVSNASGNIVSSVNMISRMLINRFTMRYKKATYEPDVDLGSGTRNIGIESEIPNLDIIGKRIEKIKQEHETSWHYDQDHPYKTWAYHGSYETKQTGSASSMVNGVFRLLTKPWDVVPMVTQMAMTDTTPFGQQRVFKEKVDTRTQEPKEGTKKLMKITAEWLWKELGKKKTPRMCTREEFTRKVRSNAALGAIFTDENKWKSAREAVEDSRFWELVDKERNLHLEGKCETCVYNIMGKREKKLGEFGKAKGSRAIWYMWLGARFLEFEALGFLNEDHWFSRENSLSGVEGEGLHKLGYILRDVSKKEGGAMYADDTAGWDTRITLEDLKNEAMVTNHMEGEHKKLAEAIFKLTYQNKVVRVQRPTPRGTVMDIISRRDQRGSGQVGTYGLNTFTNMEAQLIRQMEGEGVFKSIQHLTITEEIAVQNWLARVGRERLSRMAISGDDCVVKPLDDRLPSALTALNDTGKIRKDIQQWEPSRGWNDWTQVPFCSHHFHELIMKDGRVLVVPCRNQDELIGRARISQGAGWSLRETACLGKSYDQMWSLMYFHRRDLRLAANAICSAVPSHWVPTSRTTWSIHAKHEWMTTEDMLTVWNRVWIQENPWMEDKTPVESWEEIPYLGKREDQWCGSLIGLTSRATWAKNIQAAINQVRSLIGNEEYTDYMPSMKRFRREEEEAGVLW

For `O=[N+]([O-])c1c(NCCCO)cc(Sc2nc3ccccc3s2)c2nonc12`, the IC50 (commonly the concentration that gives 50% inhibition) is 2.05 µM (active) in [1]; > 80 µM (inactive) in test [4]; 2.37 µM (active) in test [7]; 1.95 µM (active) in test [9]; > 50 µM (not active) in [10]; 23 µM (active) in [12]. Also, the AC50 – broadly, the concentration giving half of the maximal activity seen – in test [2] was 26.2 µM (active); in test [11], 1.58 µM (active); in [16] it was 8.01 µM (active). The CC50 (usually the concentration that lowers cell viability or growth by half) in test [3] was 26.2 µM (active). Further, the EC50 in [5] was 44.1 µM (inactive); in [6], > 40 µM (inactive); in test [8], 2.2 µM (active); in [13] it was 3.07 µM (active); in test [14], > 99 µM (inactive); in test [15] it was 5.49 µM (active).

As for `NC(=O)c1c(NC(=O)c2ccccc2)sc2c1CCN(Cc1ccccc1)C2`, the EC50 is > 300 µM (inconclusive) in test [17]; > 99 µM (inactive) in [5]; > 300 µM (not active) in [18]; 12.6 µM (active) in test [19]; > 99 µM (inactive) in test [14].
